How the values were obtained:
mice = tested on: mice; set-up: method as in PMID 1730708; settings: ref [22]; cited from earlier work
hKv1.3 = assay: Two-electrode voltage-clamp, Kv1.3 expressed in Xenopus laevis oocytes; format: cell-based, mammalian; settings: 1 µM, 250-ms depolarization to 0 mV from −90 mV, pH 7.4, 18–22 °C
Source text: (§1) For the expression of Kv channels (mammalian rKv1.1, rKv1.2, hKv1.3, rKv1.4, rKv1.5, rKv1.6, and Drosophila Shaker IR) in Xenopus laevis oocytes, the linearized plasmids were transcribed using the T7 or SP6 mMESSAGE-mMACHINE transcription kit (Ambion, Carlsbad, CA, USA). The harvesting of stage V–VI oocytes from anesthetized female Xenopus laevis frog was previously described in compliance with the regulations of the European Union (EU) concerning the welfare of laboratory animals as declared in Directive 2010/63/EU. The use of X. laevis oocytes was approved by the Animal Ethics Committee of the KU Leuven with the license number P186/2019. Oocytes were injected with 50 nl of cRNA at a concentration of 1 ng/nl using a microinjector (Drummond Scientific, Broomall, PA, USA). […]
(§2) Two-electrode voltage-clamp recordings were performed at room temperature (18–22 °C) using a Geneclamp 500 amplifier (Molecular Devices, Downingtown, PA, USA) controlled by a pClamp data acquisition system (Axon Instruments, Union City, CA, USA). Whole-cell currents from oocytes were recorded 1–4 days after injection. […] All data were analyzed using pClamp Clampfit 10.1 (Molecular Devices, Downingtown, PA, USA) and Origin 7.5 software (Originlab, Northampton, MA, USA).

Shaker IR = assay: Two-electrode voltage-clamp, Shaker IR expressed in Xenopus laevis oocytes; format: cell-based, Drosophila; settings: 1 µM, 250-ms depolarization to 0 mV from −90 mV, pH 7.4, 18–22 °C
Source text: as §1, §2

Substance	LD50 (mice)	effect on Kv1.3 current (hKv1.3)	effect on Shaker IR current (Shaker IR)
KTX: toxin with LD50 ≈ 24 ng/20 g mice	≈ 24 ng/20 g mice		
ChTx: control toxin tested on Kv1.3 and Shaker IR		completely inhibited the current	completely inhibited the current

Source: PMC9657394, “Purification and Characterization of Bot33: A Non-Toxic Peptide from the Venom of Buthus occitanus tunetanus Scorpion” (Molecules, 2022)
